The record followed here is PubChem BioAssay AID1259407 (Chemical Carcinogenesis Research Information System (CCRIS), 2018).

The structures appear in SMILES notation. Activity calls are given as the source filed them. No rule for the calls is given here.

This series relates to CCRIS mutagenicity, Ames/micronucleus/aberration tests. Nature of the series: CCRIS mutagenicity studies.
The mark [1] stands for this setting: Test System: AMES SALMONELLA TYPHIMURIUM, Strain/Indicator: TA1535, Metabolic Activation: NONE, Method: STANDARD PLATE.
Setting [2] is: Test System: AMES SALMONELLA TYPHIMURIUM, Strain/Indicator: TA1535, Metabolic Activation: RAT, LIVER, S-9, AROCLOR 1254, Method: STANDARD PLATE.
[3] abbreviates: Test System: AMES SALMONELLA TYPHIMURIUM, Strain/Indicator: TA1537, Metabolic Activation: RAT, LIVER, S-9, AROCLOR 1254, Method: STANDARD PLATE.
Where [4] appears, read: Test System: AMES SALMONELLA TYPHIMURIUM, Strain/Indicator: TA1538, Metabolic Activation: NONE, Method: STANDARD PLATE.
Where [5] appears, read: Test System: AMES SALMONELLA TYPHIMURIUM, Strain/Indicator: TA1538, Metabolic Activation: RAT, LIVER, S-9, AROCLOR 1254, Method: STANDARD PLATE.
Setting [6] is: Test System: AMES SALMONELLA TYPHIMURIUM, Strain/Indicator: TA98, Metabolic Activation: NONE, Method: STANDARD PLATE.
Where [7] appears, read: Test System: AMES SALMONELLA TYPHIMURIUM, Strain/Indicator: TA100, Metabolic Activation: NONE, Method: STANDARD PLATE.
Where [8] appears, read: Test System: AMES SALMONELLA TYPHIMURIUM, Strain/Indicator: TA1537, Metabolic Activation: NONE, Method: STANDARD PLATE.

With `Cc1cc(O)c2c(c1)C(=O)c1cc(O)cc(O)c1C2=O`, the mutagenic call (Test System: AMES SALMONELLA TYPHIMURIUM, Strain/Indicator: TA97, Metabolic Activation: NONE, Method: STANDARD PLATE) is “inactive; negative”; the mutagenic call (Test System: AMES SALMONELLA TYPHIMURIUM, Strain/Indicator: TA97, Metabolic Activation: RAT, LIVER, S-9, AROCLOR 1254, Method: STANDARD PLATE) was “active; positive”; the mutagenic call (Test System: AMES SALMONELLA TYPHIMURIUM, Strain/Indicator: TA97A, Metabolic Activation: NONE, Method: STANDARD PLATE) is “inactive; negative”; the mutagenic call (Test System: AMES SALMONELLA TYPHIMURIUM, Strain/Indicator: TA97A, Metabolic Activation: RAT, LIVER, S-9, AROCLOR 1254, Method: STANDARD PLATE) is “active; positive”; the mutagenic call (Test System: AMES SALMONELLA TYPHIMURIUM, Strain/Indicator: TA98, Metabolic Activation: HAMSTER, LIVER, S-9, AROCLOR 1254 (30%), Method: PREINCUBATION) was “inactive; negative”; the mutagenic call (Test System: AMES SALMONELLA TYPHIMURIUM, Strain/Indicator: TA98, Metabolic Activation: NONE, Method: PREINCUBATION) is “inactive; negative”. For the same compound, the mutagenic call runs as follows: (Test System: AMES SALMONELLA TYPHIMURIUM, Strain/Indicator: TA98, Metabolic Activation: RAT LIVER S-9, AROCLOR 1254 (30%), Method: PREINCUBATION) “inactive; negative”; (Test System: AMES SALMONELLA TYPHIMURIUM, Strain/Indicator: TA100, Metabolic Activation: HAMSTER LIVER S-9, AROCLOR 1254 (10% OR 30%), Method: PREINCUBATION) “active; positive”; (Test System: AMES SALMONELLA TYPHIMURIUM, Strain/Indicator: TA100, Metabolic Activation: NONE, Method: PREINCUBATION) “inactive; negative”; (Test System: AMES SALMONELLA TYPHIMURIUM, Strain/Indicator: TA100, Metabolic Activation: RAT LIVER S-9, AROCLOR 1254 (5% OR 30%), Method: PREINCUBATION) “active; positive”; (Test System: AMES SALMONELLA TYPHIMURIUM, Strain/Indicator: TA102, Metabolic Activation: NONE, Method: STANDARD PLATE) “inactive; negative”; (Test System: AMES SALMONELLA TYPHIMURIUM, Strain/Indicator: TA102, Metabolic Activation: S-9, Method: STANDARD PLATE) “active; positive”. For the same compound, the mutagenic call was “inactive; negative” under setting [1]; “inactive; negative” under setting [2]; “active; positive” under setting [3]; “active; positive” (Test System: AMES SALMONELLA TYPHIMURIUM, Strain/Indicator: TA1537, Metabolic Activation: RAT, LIVER, S-9, PCB, Method: STANDARD PLATE); “active; positive” (Test System: AMES SALMONELLA TYPHIMURIUM, Strain/Indicator: TA1537, Metabolic Activation: RAT, LIVER, S-9, Method: PREINCUBATION); “inactive; negative” under setting [4]. Further, the mutagenic call was “inactive; negative” under setting [5]; “active; positive” (Test System: AMES SALMONELLA TYPHIMURIUM, Strain/Indicator: TA2638, Metabolic Activation: S-9, Method: STANDARD PLATE); “inactive; negative” (Test System: CHINESE HAMSTER V-79, Strain/Indicator: V-79 (HGPRT)/6-THIOGUANINE, Metabolic Activation: NONE, Method: SUSPENSION/PLATE); “inactive; negative” (Test System: CHINESE HAMSTER V-79, Strain/Indicator: V-79 (HGPRT)/6-THIOGUANINE, Metabolic Activation: RAT, LIVER, S-9, AROCLOR 1254, Method: SUSPENSION/PLATE); “active; positive” (Test System: CHINESE HAMSTER V-79, Strain/Indicator: V-79/8-AZAGUANINE, Metabolic Activation: NONE, Method: STANDARD PLATE); “inactive; negative” (Test System: E. COLI, Strain/Indicator: WP2 (PKM101), Metabolic Activation: S-9, Method: STANDARD PLATE). Besides, the mutagenic call by setting is: (Test System: E. COLI, Strain/Indicator: WP2 UVRA (PKM101), Metabolic Activation: S-9, Method: STANDARD PLATE) “inactive; negative”; (Test System: UDS RODENT HEPATOCYTES, Strain/Indicator: THY INCORP (NON-S-PHASE), Metabolic Activation: NONE, Method: AUTORADIOGRAPHY) “active; positive”.
Turning to `O=[N+]([O-])C1=Cc2c3c1cccc3cc1ccc3ccccc3c21`, the mutagenic call runs as follows: under setting [6], “active; positive”; (Test System: AMES SALMONELLA TYPHIMURIUM, Strain/Indicator: TA98, Metabolic Activation: RAT, LIVER, S-9, AROCLOR 1254, Method: STANDARD PLATE) “active; positive”; under setting [7], “inactive; negative”; (Test System: AMES SALMONELLA TYPHIMURIUM, Strain/Indicator: TA100, Metabolic Activation: RAT, LIVER, S-9, AROCLOR 1254, Method: STANDARD PLATE) “inactive; negative”; under setting [1], “inactive; negative”; under setting [2], “inactive; negative”. Further, the mutagenic call under setting [8] is “active; positive”, the mutagenic call under setting [3] was “inactive; negative”, the mutagenic call under setting [4] is “active; positive” and the mutagenic call under setting [5] was “active; positive”.
Consider `O=S1(=O)c2cccc3ccc4c5ccccc5cc1c4c23`, for which the mutagenic call is “active; positive” under setting [6]; “active; positive” (Test System: AMES SALMONELLA TYPHIMURIUM, Strain/Indicator: TA98, Metabolic Activation: RAT, LIVER, S-9, AROCLOR 1254 (10%), Method: STANDARD PLATE); “active; positive” under setting [7]; “active; positive” (Test System: AMES SALMONELLA TYPHIMURIUM, Strain/Indicator: TA100, Metabolic Activation: RAT, LIVER, S-9, AROCLOR 1254 (10%), Method: STANDARD PLATE).
Take `CCN(C(=O)CCCCl)c1snc2ccccc12`: the mutagenic call is “inactive; negative” under setting [6]; “inactive; negative” (Test System: AMES SALMONELLA TYPHIMURIUM, Strain/Indicator: TA98, Metabolic Activation: S-9, Method: STANDARD PLATE); “inactive; negative” under setting [7]; “inactive; negative” (Test System: AMES SALMONELLA TYPHIMURIUM, Strain/Indicator: TA100, Metabolic Activation: S-9, Method: STANDARD PLATE); “inactive; negative” under setting [1]; “inactive; negative” (Test System: AMES SALMONELLA TYPHIMURIUM, Strain/Indicator: TA1535, Metabolic Activation: S-9, Method: STANDARD PLATE). Also, the mutagenic call was “inactive; negative” under setting [8] and “inactive; negative” (Test System: AMES SALMONELLA TYPHIMURIUM, Strain/Indicator: TA1537, Metabolic Activation: S-9, Method: STANDARD PLATE).
